Test results: ChEMBL document CHEMBL1201862, “PubChem BioAssay data set” (2004)
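Test compounds were applied to cells in 96-well plates for 48 hours at 5 doses. The concentration for 50% growth inhibition is given as GI50.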 Calls of active or inactive are those of the source. Cut-off read from the data, not from the text of the source: active = GI50 up to about 1.1 µM and inactive = higher.

Key:
Assay in all cases: growth of human tumour cells (NCI), 48 h
RPMI-8226 = system: RPMI-8226
SNB-75 = system: SNB-75
K562 = system: K562
A549 = system: A549
SW-620 = system: SW-620
LOX IMVI = system: LOX IMVI
NCI-H522 = system: NCI-H522
SF-539 = system: SF-539
HCT-116 = system: HCT-116
HL-60 = system: HL-60
NCI-H460 = system: NCI-H460
SN12C = system: SN12C
HT-29 = system: HT-29
HOP-92 = system: HOP-92
NCI-H226 = system: NCI-H226
RXF 393 = system: RXF 393
OVCAR-4 = system: OVCAR-4
EKVX = system: EKVX

Measured: GI50

Nc1nc(N)c2ncn(CCCC(c3ccccc3)P(=O)(O)O)c2n1 (stereo not given)
inactive: RPMI-8226 > 100 µM | SNB-75 > 100 µM | K562 > 100 µM | A549 > 100 µM | SW-620 > 100 µM | LOX IMVI > 100 µM | NCI-H522 > 100 µM | SF-539 > 100 µM | HCT-116 > 100 µM | HL-60 > 100 µM | NCI-H460 > 100 µM | SN12C > 100 µM | HT-29 > 100 µM | HOP-92 > 100 µM

CCOC(=O)C1=C(C)N(NC(N)=O)C2(N)N(NC(N)=O)C(C)=C(C(=O)OCC)C12C(=O)OCC (stereo not given)
inactive: RPMI-8226 > 100 µM | SNB-75 47.8 µM | K562 > 100 µM | A549 > 100 µM | NCI-H226 > 100 µM | SW-620 > 100 µM | LOX IMVI > 100 µM | NCI-H522 > 100 µM | SF-539 > 100 µM | HCT-116 > 100 µM | RXF 393 > 100 µM | OVCAR-4 > 100 µM | NCI-H460 > 100 µM | SN12C > 100 µM | HT-29 > 100 µM | EKVX > 100 µM

Cc1cc(N(CCC#N)S(=O)(=O)c2ccccc2)ccc1/C=C1N=C(/C=C/c2ccccc2)OC\1=O
inactive: RPMI-8226 > 100 µM | SNB-75 > 100 µM | K562 94.6 µM | A549 > 100 µM | NCI-H226 > 100 µM | SW-620 > 100 µM | LOX IMVI > 100 µM | NCI-H522 67.9 µM | SF-539 > 100 µM | HCT-116 > 100 µM | RXF 393 > 100 µM | HL-60 > 100 µM | NCI-H460 > 100 µM | SN12C > 100 µM | HT-29 > 100 µM | EKVX > 100 µM

O=c1[nH]cc(OCC(F)(F)F)c(=O)[nH]1
inactive: RPMI-8226 > 100 µM | SNB-75 > 100 µM | K562 > 100 µM | A549 > 100 µM | SW-620 > 100 µM | LOX IMVI > 100 µM | NCI-H522 > 100 µM | SF-539 > 100 µM | HCT-116 > 100 µM | RXF 393 > 100 µM | OVCAR-4 > 100 µM | HL-60 > 100 µM | NCI-H460 > 100 µM | SN12C > 100 µM | HT-29 > 100 µM | HOP-92 > 100 µM | EKVX > 100 µM

CCOC(=O)C1S/C(=N/c2ccc(Cl)cc2C)N=C1C (stereo not given)
inactive: SNB-75 23.6 µM | K562 17.7 µM | A549 21.4 µM | NCI-H226 24 µM | SW-620 22.3 µM | LOX IMVI 15 µM | NCI-H522 13.3 µM | SF-539 17.6 µM | HCT-116 15.1 µM | RXF 393 15.3 µM | OVCAR-4 19.9 µM | HL-60 4.34 µM | NCI-H460 22 µM | SN12C 18.5 µM | HT-29 16.1 µM | HOP-92 15.5 µM | EKVX 32.2 µM

C[C@@H]1[C@H](c2ccccc2)O[B-]2(c3ccc(Br)cc3)OC(=O)C[N+]12C (stereo not given in full)
inactive: RPMI-8226 > 100 µM | SNB-75 5.3 µM | K562 98.9 µM | A549 > 100 µM | SW-620 > 100 µM | LOX IMVI > 100 µM | NCI-H522 > 100 µM | SF-539 > 100 µM | HCT-116 > 100 µM | RXF 393 26.5 µM | OVCAR-4 > 100 µM | HL-60 24.9 µM | NCI-H460 > 100 µM | SN12C > 100 µM | HT-29 > 100 µM | HOP-92 44.3 µM | EKVX > 100 µM

C/C(=N\NC(=O)C[n+]1ccccc1)c1sc(-c2nc(C)c(/C(C)=N/NC(=O)C[n+]3ccccc3)s2)nc1C
inactive: RPMI-8226 43.9 µM | SNB-75 > 100 µM | K562 41.1 µM | A549 > 100 µM | NCI-H226 > 100 µM | SW-620 > 100 µM | LOX IMVI > 100 µM | SF-539 > 100 µM | HCT-116 68.5 µM | RXF 393 > 100 µM | NCI-H460 > 100 µM | SN12C > 100 µM | HT-29 36.3 µM | HOP-92 > 100 µM | EKVX > 100 µM

CCCCCCCCCCCCCC(=O)OCC1OC(=O)CC1O (stereo not given)
inactive: RPMI-8226 49.8 µM | SNB-75 > 100 µM | K562 24.9 µM | A549 > 100 µM | SW-620 > 100 µM | LOX IMVI 51.5 µM | SF-539 > 100 µM | HCT-116 44.2 µM | RXF 393 > 100 µM | OVCAR-4 > 100 µM | HL-60 43 µM | NCI-H460 > 100 µM | SN12C > 100 µM | HT-29 94.4 µM | HOP-92 7.36 µM | EKVX > 100 µM

CCOC(=O)C1(Cc2ccccc2)CCCCCN1 (stereo not given)
inactive: SNB-75 32.8 µM | K562 > 100 µM | A549 > 100 µM | SW-620 > 100 µM | LOX IMVI > 100 µM | RXF 393 > 100 µM | OVCAR-4 > 100 µM | HL-60 > 100 µM | NCI-H460 > 100 µM | SN12C > 100 µM | HT-29 > 100 µM | HOP-92 > 100 µM | EKVX > 100 µM

COc1ccc(C2Oc3c(cc(O)c(OC)c3C)[C@@H]2C)cc1OC (stereo not given in full)
inactive: RPMI-8226 4.44 µM | SNB-75 29.7 µM | K562 47.9 µM | A549 > 100 µM | NCI-H226 > 100 µM | SW-620 71 µM | LOX IMVI 82.6 µM | NCI-H522 34.4 µM | SF-539 > 100 µM | HCT-116 > 100 µM | RXF 393 27.7 µM | OVCAR-4 42.4 µM | HL-60 50.2 µM | NCI-H460 > 100 µM | HT-29 > 100 µM | HOP-92 43 µM | EKVX > 100 µM

CC(=O)NNc1nc(C)c(C(=O)NNC(=O)C(=O)Nc2ccc(C)cc2[N+](=O)[O-])s1
inactive: RPMI-8226 > 100 µM | SNB-75 > 100 µM | K562 > 100 µM | A549 > 100 µM | NCI-H226 > 100 µM | SW-620 > 100 µM | LOX IMVI 56.4 µM | NCI-H522 20.7 µM | SF-539 > 100 µM | HCT-116 > 100 µM | RXF 393 > 100 µM | OVCAR-4 > 100 µM | HL-60 > 100 µM | NCI-H460 > 100 µM | SN12C > 100 µM | HT-29 > 100 µM | HOP-92 > 100 µM | EKVX > 100 µM

Oc1cc(-c2ccc[nH]2)nc2cc3c(cc12)OCO3
inactive: RPMI-8226 43 µM | SNB-75 13.8 µM | K562 17.1 µM | A549 53.8 µM | SW-620 21.6 µM | LOX IMVI 64.1 µM | SF-539 29.6 µM | OVCAR-4 21 µM | HL-60 26.9 µM | NCI-H460 25.2 µM | SN12C 49 µM | HT-29 29.8 µM | EKVX 55.3 µM

O=[N+]([O-])c1nccn1COCCBr
inactive: RPMI-8226 > 100 µM | SNB-75 > 100 µM | K562 > 100 µM | A549 > 100 µM | NCI-H226 > 100 µM | SW-620 > 100 µM | LOX IMVI > 100 µM | NCI-H522 > 100 µM | SF-539 > 100 µM | HCT-116 > 100 µM | OVCAR-4 > 100 µM | HL-60 > 100 µM | NCI-H460 > 100 µM | SN12C > 100 µM | HT-29 > 100 µM | HOP-92 > 100 µM | EKVX > 100 µM

CC(C)c1ccccc1NC(=O)/C(Cl)=C1/Sc2ccccc2NC1=O
inactive: RPMI-8226 20.9 µM | SNB-75 22.7 µM | K562 14.8 µM | A549 32.3 µM | NCI-H226 26.9 µM | SW-620 25.2 µM | LOX IMVI 29.2 µM | NCI-H522 17.9 µM | SF-539 21.9 µM | HCT-116 28.8 µM | RXF 393 13.3 µM | OVCAR-4 21.9 µM | HL-60 21.2 µM | NCI-H460 34.5 µM | SN12C 34 µM | HOP-92 11.6 µM | EKVX 49.1 µM

Cc1cccc2c1C(=O)OC2(C)c1cccc2ccccc12 (stereo not given)
inactive: RPMI-8226 25.4 µM | SNB-75 9.71 µM | K562 16.4 µM | A549 35.2 µM | NCI-H226 26.5 µM | SW-620 30.3 µM | LOX IMVI 30.3 µM | NCI-H522 16.8 µM | RXF 393 22.6 µM | OVCAR-4 22.4 µM | HL-60 16.4 µM | NCI-H460 29.7 µM | SN12C 21.2 µM | HT-29 30.5 µM | HOP-92 18.6 µM | EKVX 35.7 µM

COc1ccc(/C=C2\C(=O)N(C(=O)c3ccc(NC(C)=O)cc3)N=C2C)cc1OC
inactive: RPMI-8226 > 100 µM | SNB-75 > 100 µM | K562 > 100 µM | A549 > 100 µM | NCI-H226 > 100 µM | SW-620 > 100 µM | LOX IMVI > 100 µM | NCI-H522 > 100 µM | SF-539 > 100 µM | HCT-116 > 100 µM | OVCAR-4 > 100 µM | HL-60 > 100 µM | NCI-H460 > 100 µM | SN12C > 100 µM | HT-29 > 100 µM | EKVX > 100 µM

CC1(CO)OC1COCc1ccccc1 (stereo not given)
inactive: RPMI-8226 > 100 µM | SNB-75 > 100 µM | K562 > 100 µM | A549 > 100 µM | NCI-H226 > 100 µM | SW-620 > 100 µM | LOX IMVI > 100 µM | SF-539 > 100 µM | RXF 393 > 100 µM | HL-60 > 100 µM | NCI-H460 > 100 µM | SN12C > 100 µM | HT-29 > 100 µM | HOP-92 > 100 µM | EKVX > 100 µM
